Source: PMC11395333, “The Bifunctional Dimer Caffeine-Indan Attenuates α-Synuclein Misfolding, Neurodegeneration and Behavioral Deficits after Chronic Stimulation of Adenosine A1 Receptors” (International Journal of Molecular Sciences, 2024)

Tests used:
male Sprague-Dawley rats = test: Y-maze test after 7-day chronic i.p. CPA injection; type: in vivo, rat
Text: All animals were housed and treated humanely following the guidelines from the following governing bodies: National Research Council (US) Committee for the Update of the Guide for the Care and Use of Laboratory Animals (Washington DC, USA, 2011); Canadian Council on Animal Care (CCAC); and the University of Saskatchewan Animal Research Ethics Board (AREB), which approved our Animal Use Protocol (#20070090 and #20170079). The animals were housed in cages of two, with access to food pellets and water ad libitum. The four treatments of the Sprague-Dawley rats consisted of the following: 1. Control (0.1% DMSO in 0.9% saline); 2. CPA; 3. […] Drugs were dissolved at 3 mg/mL in DMSO, and each drug was administered to the animals by daily i.p. injections (3 mg/kg or 5 mg/kg body weight) for 7 consecutive days. […] Then, on days 8 and 9 following the final injections, the animals were subjected to several behavioral tests. The Y-maze or the modified Y-maze is a rodent behavior test used to assess short-term spatial memory based on the innate inclination of animals to explore new areas not previously seen. In this study, the Y-maze test is used to assess short-term memory, especially hippocampal-dependent spatial memory. The maze is shaped like a “Y”, with each arm oriented at a 120° angle from one another. The arms are 50 cm in length, 15 cm in width and 35 cm in depth. For the first trial, which lasts 15 min, the animal is placed at the beginning of the “Start arm” and is free to explore this arm and another one (referred to as the “Old arm”), while the remaining arm (“New arm”) is blocked. This trial should give the animal time to explore and become acquainted with the maze’s two arms. After a resting period of 90 min, the blocked arm is opened, and the animal is placed again at the “Start arm”. […] This trial is then used to calculate the percentage of time the animals spent in each arm. A video camera was used to record the animal movement in both trials. Each experiment was repeated at least fifteen times per treatment and the average of each treatment is presented in the bar graphs as average means ± standard error of the mean (SEM).

α-Syn [1] = test: Immunohistochemistry and Thioflavin-S staining of brain slices (α-Syn expression and aggregation); type: in vivo, rat
Text: All animals were housed and treated humanely following the guidelines from the following governing bodies: National Research Council (US) Committee for the Update of the Guide for the Care and Use of Laboratory Animals (Washington DC, USA, 2011); Canadian Council on Animal Care (CCAC); and the University of Saskatchewan Animal Research Ethics Board (AREB), which approved our Animal Use Protocol (#20070090 and #20170079). The animals were housed in cages of two, with access to food pellets and water ad libitum. The four treatments of the Sprague-Dawley rats consisted of the following: 1. Control (0.1% DMSO in 0.9% saline); 2. CPA; 3. […] Drugs were dissolved at 3 mg/mL in DMSO, and each drug was administered to the animals by daily i.p. injections (3 mg/kg or 5 mg/kg body weight) for 7 consecutive days. […] Then, on days 8 and 9 following the final injections, the animals were subjected to several behavioral tests.
Anesthetized rats were transcardially perfused with 0.9% saline, and then fixed with 4% paraformaldehyde. The extracted brains were put in 30% cryoprotected sucrose solution for 48 h prior to slicing. The brains were initially frozen at −40 °C (BFS-30 mp controllers) and sliced with the help of a microtome (Leica SM2010 R Sliding controller). Coronal slices of 40 μm were then washed three times in 0.1 M phosphate-buffered saline followed by 1 h blocking at room temperature with blocking buffer. The buffer solution components have been previously described. The slices were then incubated overnight at 4 °C with the following primary antibodies: 1:200 mouse monoclonal to α-synuclein (Abcam Inc, Toronto, ON, Canada; Cat# ab280377) and 1:200 rabbit polyclonal to tyrosine hydroxylase (TH) (Millipore-Sigma, Oakville, ON, Canada; Cat# AB152). Subsequently, slices were then incubated for 1 h in the dark at room temperature with the following secondary antibodies (1:1000): AlexaFluor-555-conjugated anti-mouse (Cat# A-21127) and AlexaFluor-647-conjugated anti-rabbit (Cat# A-21244) purchased from Invitrogen (Thermo Fisher Scientific, Waltham, MA, USA). Slices were then treated with Thioflavin-S (see further details below). Lastly, the slices were incubated for 5 min at room temperature with DAPI (2 mg/mL) from Invitrogen (Thermo Fisher Scientific; Cat# R37606) and images were taken using a Zeiss LSM700 confocal microscope (Carl Zeiss Group, Toronto, ON, Canada) and analyzed with ImageJ (Open-Source Public Domain software, United States National Institute of Health (US NIH), Bethesda, MD, USA). Images of the hippocampal CA1 pyramidal layer and the SN pars compacta were obtained using the Zeiss Plan-Apochromat 63X/1.4 oil objective lens (Carl Zeiss Group, Toronto, ON, Canada). Images were acquired as Z-stack images of hippocampal or SN regions with 12–13 Z-stack images taken at 1 µm intervals near the middles of brain slices. Two Z-stack images were taken along the hippocampal CA1 or SN pars compacta region for each slice, and immunofluorescence signals were averaged using densitometry analysis.
Thioflavin-S (Thio-S) is a fluorescent marker (Sigma-Aldrich, Oakville, ON, Canada; Cat# T1892-25G) that detects α-Syn aggregates and amyloid plaques. Coronal slices of 40 μm were firstly treated with 0.3% KMnO4 for 4 min, followed by a 30 min incubation with 1 M phosphate buffered saline at 4 °C. These slices were then stained with 0.05% Thioflavin-S in 50% ethanol in the dark for 8 min, rinsed with 80% ethanol twice, followed by three rinses with ultra-pure water for 30 s. Finally, the slices were incubated again with 1 M phosphate buffered saline for 30 min at 4 °C before starting the DAPI stain. The FITC filter (488 nm laser line) was used to image Thioflavin-S using a Zeiss LSM700 confocal microscope (Carl Zeiss Group, Canada) and images were analyzed with ImageJ (Public Domain).

[2] = tested on: one- and two-copied α-Syn-Green Fluorescent Protein (GFP) yeast strain; design: method as in PMID 27673434; settings: cited from earlier work
α-Syn [3] = tested on: α-Syn; design: method as in PMID 27673434; settings: isothermal titration calorimetry; cited from earlier work
[4] = CPA 3 mg/kg i.p. daily for 7 days, alone

With `OC[C@H]1O[C@@H](n2cnc3c(NC4CCCC4)ncnc32)[C@H](O)[C@@H]1O` [CPA, N^6-Cyclopentyladenosine, reference compound] the “Y-maze, hippocampal-dependent spatial memory” value (male Sprague-Dawley rats; [4]) was “induced hippocampal-dependent spatial memory deficits”, the “α-Syn levels in SNc and CA1 hippocampal region” value (α-Syn [1]; [4]) was “markedly increased” and the “Thio-S levels in SNc” value (α-Syn [1]; CPA 3 mg/kg i.p. daily for 7 days, alone, compared to control) was “significant increase in Thio-S levels”.

For `Cn1c(=O)c2c(nc(CCCCCCNC3CCc4ccccc43)n2C)n(C)c1=O` (stereo not drawn) [C8–6–I], the “Rescue from α-Syn-induced cell death” value ([2]; galactose promoter) is listed as “successful in rescuing the one- and two-copied α-Syn-Green Fluorescent Protein (GFP) yeast strain from α-Syn-induced cell death”, the “Prevention of large α-Syn foci” value ([2]; one- and two-copied α-Syn-GFP yeast) is listed as “effective in preventing large α-Syn foci” and the “Y-maze, time spent in the start arm” value (male Sprague-Dawley rats; 3 mg/kg i.p. with 3 mg/kg CPA, 7 days) is listed as “approximately 45%”. For the same compound, the “Y-maze, cognitive deficits” value (male Sprague-Dawley rats; 5 mg/kg i.p. with 3 mg/kg CPA, 7 days) was “significantly ameliorated the cognitive deficits caused by CPA”, the “Y-maze, percentage of time spent in the novel arm” value (male Sprague-Dawley rats; 3 or 5 mg/kg i.p. co-administered with 3 mg/kg CPA, 7 days) was “attenuated the learning deficits caused by CPA” and the “Binding constant with α-Syn” value (α-Syn [3]) was 53000 M⁻¹. The “Number of binding sites with α-Syn” value (α-Syn [3]) was “one binding site”, the “Thio-S levels in CA1 hippocampus” value (α-Syn [1]; 3 mg/kg + CPA) was “abolished the CPA-induced Thio-S levels” and the “Thio-S levels in SNc” value (α-Syn [1]; 3 mg/kg + CPA, compared to control) was “significant increase in Thio-S levels”. For the same compound, the “Thio-S levels in SNc” value (α-Syn [1]; 5 mg/kg + CPA) was “reached control levels”, the “Thio-S levels in hippocampus” value (α-Syn [1]; 5 mg/kg + CPA) was “moderate but significant Thio-S level increase” and the “α-Syn levels in SNc and CA1 hippocampal region” value (α-Syn [1]; co-treatment with 3 mg/kg CPA, 7 days) was “prevented this α-Syn upregulation”.
